According to the NIST ThermoML archive (doi:10.1016/j.fluid.2008.01.004):

Assay: mn = molality of the nth substance listed, in mol/kg
Conditions: 101 kPa, Liquid; for molar conductivity: digital conductivity meter; for speed of sound: Sing-around technique in a fixed-path interferometer

O=P([O-])([O-])[O-].[Na+].[Na+].[Na+] [trisodium phosphate] + O
Conditions | mass density, 293.15 K [kg/m3] | mass density, 298.15 K [kg/m3] | mass density, 303.15 K [kg/m3] | molar conductivity, 293.15 K [S·m2/mol] | molar conductivity, 298.15 K [S·m2/mol] | molar conductivity, 303.15 K [S·m2/mol] | speed of sound, 298.15 K [m/s] | speed of sound, 303.15 K [m/s]
m1 = 0.0026 | – | – | – | – | 0.0415 | 0.0409 | – | –
m1 = 0.0039 | – | – | – | – | 0.0401 | 0.0404 | – | –
m1 = 0.0053 | – | – | – | – | 0.0392 | 0.0398 | – | –
m1 = 0.0089 | 999.952 | 998.77 | 997.355 | – | – | – | 1499.3 | 1511.7
m1 = 0.0105 | 1000.27 | 999.088 | 997.668 | – | 0.0359 | 0.0367 | 1499.8 | 1512.1
m1 = 0.0116 | 1000.49 | 999.3 | 997.879 | – | – | – | 1500.2 | 1512.5
m1 = 0.0132 | 1000.8 | 999.611 | 998.187 | – | 0.0347 | 0.0355 | 1500.5 | 1512.8
m1 = 0.0183 | 1001.83 | 1000.62 | 999.189 | – | 0.0328 | 0.0333 | 1501.8 | 1514.1
m1 = 0.0234 | 1002.81 | 1001.6 | 1000.15 | – | 0.031 | 0.0318 | 1503.3 | 1515.6
m1 = 0.0342 | 1004.92 | 1003.68 | 1002.22 | – | 0.028 | 0.029 | 1505.8 | 1518
m1 = 0.045 | 1007.02 | 1005.76 | 1004.28 | – | 0.0263 | 0.0274 | 1508.5 | 1520.6
m1 = 0.0563 | 1009.2 | 1007.91 | 1006.41 | – | 0.025 | 0.0259 | 1511.1 | 1523.2
m1 = 0.0662 | 1011.09 | 1009.78 | 1008.27 | – | 0.0239 | 0.0248 | 1513.4 | 1525.5
m1 = 0.0767 | – | – | – | – | 0.0231 | 0.0238 | – | –
m1 = 0.088 | 1015.29 | 1013.95 | 1012.39 | – | 0.0221 | 0.023 | 1518.5 | 1530.5
m1 = 0.0968 | 1016.97 | 1015.61 | 1014.04 | 0.0206 | 0.0217 | 0.0226 | 1520.6 | 1532.4
m1 = 0.1086 | 1019.2 | 1017.82 | 1016.24 | 0.0201 | 0.0211 | 0.0216 | 1523.3 | 1535
m1 = 0.1133 | 1020.11 | 1018.73 | 1017.13 | 0.0198 | 0.0207 | 0.0215 | 1524.3 | 1536.1
m1 = 0.1296 | 1023.21 | 1021.79 | 1020.18 | 0.0189 | 0.0199 | 0.0208 | 1528 | 1539.6
m1 = 0.141 | 1025.39 | 1023.96 | 1022.32 | 0.0185 | 0.0195 | 0.0201 | 1530.7 | 1542.2
m1 = 0.1515 | 1027.32 | 1025.87 | 1024.22 | 0.0182 | 0.0193 | 0.0198 | 1532.9 | 1544.4
m1 = 0.1638 | 1029.67 | 1028.19 | 1026.53 | 0.0181 | 0.0191 | 0.0198 | 1535.7 | 1547.1
m1 = 0.1755 | 1031.84 | 1030.35 | 1028.66 | 0.0176 | 0.0186 | 0.0193 | 1538.3 | 1549.6
m1 = 0.1868 | 1034.01 | 1032.5 | 1030.8 | 0.0172 | 0.018 | 0.0186 | 1540.8 | 1552.1
m1 = 0.1954 | 1035.55 | 1034.03 | 1032.32 | 0.0171 | 0.0178 | 0.0182 | 1542.7 | 1553.9
m1 = 0.2224 | 1040.71 | 1039.14 | 1037.39 | 0.0162 | 0.0169 | 0.0173 | 1548.8 | 1559.9
m1 = 0.2333 | 1042.76 | 1041.17 | 1039.41 | 0.016 | 0.0168 | 0.0171 | 1551.2 | 1562.2
m1 = 0.2509 | 1045.97 | 1044.36 | 1042.57 | 0.0157 | 0.0163 | 0.0167 | 1555 | 1565.9
